The values below come from US8501804B2, “Bicyclic compound” (Takeda Pharmaceutical Company Limited, priority 2008, dated 2013).

Test [1] has as its target T1, human ACC2 (Nd) (Homo sapiens, UniProt O00763).
T1 construct: His6 (from vector pFAST-BacHTa); made in house; host or cells: SF-9 insect cells, recombinant baculovirus BAC-ACC2 (Nd)
The experiment in a line: ACC2 inhibitory activity (malachite green). The test is classed as biochemical. Particulars: test compound 10 μM; for inhibition at 10 µM: read-out: ACC2 10 μM inhibitory rate (%). As for the experimental part:
The ACC2 inhibitory action of the compound of the present invention was evaluated by the following method.
(1) Cloning of Human ACC2 Gene and Preparation of Recombinant Baculovirus
Human ACC2 gene was cloned by PCR using a human skeletal muscle cDNA library (Clontech) as a template and Primer 1 and Primer 2 shown below. Primer 1 and Primer 2 were prepared by adding SalI, XbaI restriction enzyme recognition sequences based on the information of the base sequence of human ACC2 gene (Genbank Accession U89344).
PCR was performed using Pyrobest DNA polymerase (TAKARA BIO INC.). The obtained PCR product was cloned to pT7 Blue vector (Novagen) and, after confirmation of the base sequence, digested with restriction enzymes SalI and XbaI. The obtained DNA fragment was inserted into pFAST-BacHTa (Invitrogen) digested with restriction enzymes SalI and XbaI to give expression plasmid ACC2/pFAST-BacHTa.
A plasmid for expression of ACC2 without a mitochondrial targeting sequence was prepared by PCR using the expression plasmid as a template, and Primer 3 (SalI restriction enzyme recognition sequence was added) and Primer 4 prepared by reference to the information of human ACC2 gene base sequence (Genbank Accession U89344).
PCR was performed using Pyrobest-DNA polymerase (TAKARA BIO INC.). The obtained PCR product was cloned to pT7 Blue vector (Novagen) and, after confirmation of the base sequence, digested with restriction enzymes SalI and AflII. The obtained DNA fragment was inserted into ACC2/pFAST-BacHTa digested with restriction enzymes SalI and AflII to give expression plasmid ACC2mito7/pFAST-BacHTa.
Using the expression plasmid ACC2mito7/pFAST-BacHTa and BAC-TO-BAC Baculovirus Expression System (Invitrogen), virus stock BAC-ACC2 of recombinant Baculovirus (N terminal deleted (hereinafter Nd)) was prepared.
(2) Preparation of ACC2 (Nd) Protein
SF-9 cells (Invitrogen) were inoculated to a medium (2 L) for insect cells (Sf-900IISFM medium (Invitrogen) containing 10% fetal bovine serum (Trace), 50 mg/L Gentamicin (Invitrogen), 0.1% Pluronic F-68 (Invitrogen)) at 0.5×10^6 cells/mL, and cultured with shaking in Wave Bioreactor (Wave) at 27° C., 20 rpm, rocking angle 6°, oxygen concentration 30%.
On day 4 of the culture, 3 L of the medium for insect cells was added, the rocking angle was set to 8°, and the cells were cultured. On day 5 of the culture, 100 ml of recombinant Baculovirus BAC-ACC2 (Nd) was added, 5 L of the medium for insect cells was further added, the rocking angle was set to 11°, and the cells were cultured for 3 days. The culture medium was centrifuged at 1000×g for 10 min to give virus-infected cells. The cells were washed with phosphate buffered saline (Invitrogen) and centrifuged under the same conditions. The obtained cells were cryopreserved at −80° C.
The cryopreserved cells were thawed in ice and suspended in 900 ml of 25 mM HEPES buffer (pH 7.5) containing 10% Glycerol, 0.13 M NaCl, 1 mM EDTA, 25 mM Sodium β-Glycerophosphate and 1 mM Sodium Orthovanadate, and supplemented with Complete Protease Inhibitor (Nippon Boehringer Ingelheim Co., Ltd.). The obtained suspension was homogenized three times in a polytron homogenizer (Kinematica) at 20,000 rpm for 30 sec. The obtained cell disruption solution was clarified by centrifugation at 31000×g for 60 min, and filtered through a 0.45 μm filter. The filtrate was passed through a column packed with 60 mL of Ni-NTA Super Flow Gel (QUIAGEN) at a flow rate of about 5 mL/min. The column was washed with buffer A (50 mM HEPES (pH 7.5) containing 0.3 M NaCl), further washed with buffer A containing 20 mM Imidazole, and eluted with buffer A containing 100 mM Imidazole. The eluate was concentrated with Vivaspin 20 (Vivascience) with a molecular weight cut off of 30K. The obtained concentrate was dialyzed against 50 mM HEPES (pH 7.5) containing 10 mM MgCl2, 2 mM Dithiothreitol, 10 mM Tripotassium Citrate and 0.3 M NaCl. The inner dialysate was filtered through a 0.22 μm filter to give ACC2 (Nd). […]

The target of test [2] is T2, human ACC1 (Homo sapiens, UniProt Q13085).
T2 construct: His6 (from vector pFAST-BacHTc); made in house; host or cells: SF-9 insect cells, recombinant baculovirus BAC-ACC1
The experiment in a line: ACC1 inhibitory activity (malachite green). The test is classed as biochemical. Particulars: test compound 10 μM; for inhibition at 10 µM: read-out: ACC1 10 μM inhibitory rate (%). As for the experimental part: The ACC1 inhibitory action of the compound of the present invention was evaluated by the following method.
(1) Cloning of Human ACC1 Gene and Preparation of Recombinant Baculovirus
Human ACC1 gene was cloned by PCR using a human liver cDNA library (Clontech) as a template and Primer 1 and Primer 2 shown below. Primer 1 and Primer 2 were prepared by adding SalI, NotI restriction enzyme recognition sequences based on the information of the base sequence of human ACC1 gene (Genbank Accession U19822).
PCR was performed using Pyrobest DNA polymerase (TAKARA BIO INC.). The obtained PCR product was cloned to pT7 Blue vector (Novagen) and, after confirmation of the base sequence, digested with restriction enzymes SalI and NotI. The obtained DNA fragment was inserted into pFAST-BacHTc (Invitrogen) digested with restriction enzymes SalI and NotI to give expression plasmid ACC1/pFAST-BacHTc.
Using the expression plasmid ACC1/pFAST-BacHTc and BAC-TO-BAC Baculovirus Expression System (Invitrogen), virus stock BAC-ACC1 of recombinant Baculovirus was prepared.
(2) Preparation of ACC1 Protein
SF-9 cells (Invitrogen) were inoculated to a medium (1 L) for insect cells (Sf-900IISFM medium (Invitrogen) containing 10% fetal bovine serum (Trace), 50 mg/L Gentamicin (Invitrogen), 0.1% Pluronic F-68 (Invitrogen)) at 1×10^6 cells/mL, and cultured with shaking in 2 L meyer at 27° C., 100 rpm.
After 24 hr of the culture, 10 mL of recombinant Baculovirus BAC-ACC1 was added, and the cells were cultured for 3 days. The culture medium was centrifuged at 1000×g for 5 min to give virus-infected cells. The cells were washed with phosphate buffered saline (Invitrogen) and centrifuged under the same conditions. The obtained cells were cryopreserved at −80° C.
The cryopreserved cells were thawed in ice and suspended in 100 mL of 25 mM HEPES buffer (pH 7.5) containing 10% Glycerol, 0.13 M NaCl, 1 mM EDTA, 25 mM Sodium […] and 1 mM Sodium Orthovanadate, and supplemented with Complete Protease Inhibitor (Nippon Boehringer Ingelheim Co., Ltd.). The obtained suspension was homogenized three times in a polytron homogenizer (Kinematica) at 20,000 rpm for 30 sec. The obtained cell disruption solution was clarified by centrifugation at 185700×g for 50 min, and filtered through a 0.45 μm filter. The filtrate was passed through a column packed with 12 ml of Ni-NTA Super Flow Gel (QUIAGEN) at a flow rate of about 5 mL/min. The column was washed with buffer A (50 mM HEPES (pH 7.5) containing 0.3 M NaCl), further washed with buffer A containing 20 mM Imidazole, and eluted with buffer A containing 100 mM Imidazole. The eluate was concentrated with Vivaspin 20 (Vivascience) with a molecular weight cut off of 30K. The obtained concentrate was dialyzed against Sephadex G-25 (Amersham Biosciences, 358 mL) equilibrated with 50 mM HEPES (pH 7.5) containing 10 mM MgCl2, 2 mM Dithiothreitol, 10 mM Tripotassium Citrate and 0.3 M NaCl. The inner dialysate was concentrated with Vivaspin 20 (Vivascience) with molecular weight cut off of 30K, and concentrate was filtered through a 0.22 μm filter to give ACC1. The obtained ACC1 was cryopreserved at −80° C.
(3) Measurement of ACC1 Inhibitory Activity
ACC1 (0.93 mg/ml) obtained in the above-mentioned (2) was diluted with an enzyme reaction buffer (50 mM HEPES (pH 7.5), 10 mM MgCl2, 10 mM Tripotassium Citrate, 2 mM Dithiothreitol, 0.75 mg/ml Fatty acid free BSA) to a concentration of 8 μg/ml, and the mixture was added to each well of a 384 well assay plate (Nunc 265196) by 10 μl. A test compound was dissolved in dimethyl sulfoxide (DMSO) and the mixture was diluted with an enzyme reaction buffer and the resulting solution (5 μl) was added to each well. The mixture was incubated at 30° C. for 60 min. Then, a substrate solution (50 mM KHCO3, 200 μM ATP, 200 μM Acetyl-CoA, 5 μl) was added to each well, and the mixture was reacted at 30° C. for 20 min (test compound addition group). […]

Structures are written as SMILES.

T1 sequence (O00763 117-2458 limits assumed): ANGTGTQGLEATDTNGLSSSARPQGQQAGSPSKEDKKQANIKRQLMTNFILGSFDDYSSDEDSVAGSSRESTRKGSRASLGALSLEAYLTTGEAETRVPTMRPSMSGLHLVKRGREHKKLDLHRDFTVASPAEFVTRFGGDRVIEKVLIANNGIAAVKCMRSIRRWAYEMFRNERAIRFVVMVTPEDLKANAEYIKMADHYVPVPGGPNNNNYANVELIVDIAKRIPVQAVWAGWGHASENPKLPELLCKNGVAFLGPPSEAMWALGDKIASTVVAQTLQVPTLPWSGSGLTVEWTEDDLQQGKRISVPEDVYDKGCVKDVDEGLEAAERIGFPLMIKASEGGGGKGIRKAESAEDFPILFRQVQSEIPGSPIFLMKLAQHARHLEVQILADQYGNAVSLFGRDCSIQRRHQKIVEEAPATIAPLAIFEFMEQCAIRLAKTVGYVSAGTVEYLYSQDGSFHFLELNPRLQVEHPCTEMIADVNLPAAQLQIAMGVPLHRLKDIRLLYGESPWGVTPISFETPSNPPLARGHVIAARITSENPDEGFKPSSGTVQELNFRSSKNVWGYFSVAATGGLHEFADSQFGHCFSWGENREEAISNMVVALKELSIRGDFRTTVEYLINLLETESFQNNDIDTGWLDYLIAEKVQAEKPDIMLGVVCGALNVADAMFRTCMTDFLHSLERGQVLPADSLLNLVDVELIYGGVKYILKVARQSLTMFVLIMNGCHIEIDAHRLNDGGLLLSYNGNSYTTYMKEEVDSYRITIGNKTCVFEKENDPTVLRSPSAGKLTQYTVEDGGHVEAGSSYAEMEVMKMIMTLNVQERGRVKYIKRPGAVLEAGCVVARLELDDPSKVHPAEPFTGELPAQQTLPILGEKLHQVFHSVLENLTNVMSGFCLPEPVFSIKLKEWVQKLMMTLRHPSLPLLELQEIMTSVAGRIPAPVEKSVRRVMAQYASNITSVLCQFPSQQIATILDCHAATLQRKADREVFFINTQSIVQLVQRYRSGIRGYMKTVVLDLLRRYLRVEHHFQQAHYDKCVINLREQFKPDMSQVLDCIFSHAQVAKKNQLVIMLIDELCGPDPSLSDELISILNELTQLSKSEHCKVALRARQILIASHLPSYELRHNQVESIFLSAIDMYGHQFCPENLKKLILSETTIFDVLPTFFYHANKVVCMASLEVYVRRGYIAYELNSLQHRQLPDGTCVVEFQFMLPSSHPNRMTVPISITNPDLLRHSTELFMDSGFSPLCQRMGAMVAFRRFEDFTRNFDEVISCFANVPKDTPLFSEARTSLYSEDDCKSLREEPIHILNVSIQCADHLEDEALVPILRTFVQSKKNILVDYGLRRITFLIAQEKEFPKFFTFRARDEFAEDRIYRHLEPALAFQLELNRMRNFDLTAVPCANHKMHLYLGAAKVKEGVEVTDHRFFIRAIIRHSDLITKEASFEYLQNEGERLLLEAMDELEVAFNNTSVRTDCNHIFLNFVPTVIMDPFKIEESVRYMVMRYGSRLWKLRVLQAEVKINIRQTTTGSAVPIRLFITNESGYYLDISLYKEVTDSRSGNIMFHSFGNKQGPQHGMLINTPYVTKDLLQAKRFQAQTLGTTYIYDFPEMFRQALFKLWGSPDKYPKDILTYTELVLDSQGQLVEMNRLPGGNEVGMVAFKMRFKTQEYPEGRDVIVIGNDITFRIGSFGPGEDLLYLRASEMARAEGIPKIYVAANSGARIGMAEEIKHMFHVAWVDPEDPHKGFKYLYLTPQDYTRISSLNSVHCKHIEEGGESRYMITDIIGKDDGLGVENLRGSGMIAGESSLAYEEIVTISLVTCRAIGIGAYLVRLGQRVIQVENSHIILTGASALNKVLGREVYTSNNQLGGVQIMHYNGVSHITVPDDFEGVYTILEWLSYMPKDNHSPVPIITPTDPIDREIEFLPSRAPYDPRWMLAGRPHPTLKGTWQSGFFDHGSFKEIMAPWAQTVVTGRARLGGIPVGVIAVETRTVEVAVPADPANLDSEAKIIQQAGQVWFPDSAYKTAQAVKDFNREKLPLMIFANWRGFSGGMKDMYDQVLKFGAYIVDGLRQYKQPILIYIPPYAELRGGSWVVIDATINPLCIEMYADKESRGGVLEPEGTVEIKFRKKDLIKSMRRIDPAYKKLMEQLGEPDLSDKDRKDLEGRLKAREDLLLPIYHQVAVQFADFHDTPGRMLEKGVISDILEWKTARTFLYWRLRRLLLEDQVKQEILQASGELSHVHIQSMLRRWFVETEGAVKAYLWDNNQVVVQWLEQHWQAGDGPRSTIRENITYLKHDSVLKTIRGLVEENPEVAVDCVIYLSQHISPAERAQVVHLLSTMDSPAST

Regarding `CCOc1ccc(CCc2ccc3cc(C(C)NC(C)=O)oc3c2)cc1` (centres unmarked) [Example 20, N-(1-{6-[2-(4-ethoxyphenyl)ethyl]-1-benzofuran-2-yl}ethyl)acetamide], in test [1], the “ACC2 10 μM inhibitory rate (%)” value was found to be 83%. The “ACC1 10 μM inhibitory rate (%)” value in test [2] is listed as 23%.
For `CCCOc1ccc(C#Cc2ccc3c(c2)O[C@H]([C@H](C)NC(C)=O)C3)cc1` [Example 115, N-[(1S)-1-{(2S)-6-[(4-propoxyphenyl)ethynyl]-2,3-dihydro-1-benzofuran-2-yl}ethyl]acetamide], the inhibition at 10 µM in test [1] was found to be 76%; in test [2], 25%.
Regarding `CCOc1ccc(COc2ccc3oc(C(C)NC(C)=O)cc3c2)cc1` (centres unmarked) [Example 27, optically active forms (two kinds) of N-(1-{5-[(4-ethoxybenzyl)oxy]-1-benzofuran-2-yl}ethyl)acetamide], in test [1], the “ACC2 10 μM inhibitory rate (%)” value is 76%. Besides, in test [2], the “ACC1 10 μM inhibitory rate (%)” value amounted to 18%.
`COCOc1ccc(CCc2ccc3cc(C(C)NC(C)=O)oc3c2)cc1` (centres unmarked) [Example 95, N-[1-(6-{2-[4-(methoxymethoxy)phenyl]ethyl}-1-benzofuran-2-yl)ethyl]acetamide]: the figures for the inhibition at 10 µM in test [1] and in test [2] were 80% and 43%, respectively.
`CC(=O)N[C@H](C)[C@H]1Cc2ccc(CCc3ccc(OCC4CC4)cc3)cc2O1` (racemic) [Example 121, 1:1 mixture of N-{(1R)-1-[(2R)-6-{2-[4-(cyclopropylmethoxy)phenyl]ethyl}-2,3-dihydro-1-benzofuran-2-yl]ethyl}acetamide and N-{(1S)-1-[(2S)-6-{2-[4-(cyclopropylmethoxy)phenyl]ethyl}-2,3-dihydro-1-benzofuran-2-yl]ethyl}acetamide]: the inhibition at 10 µM in test [1] came to 73%; in test [2], 35%.
For `CCOc1ccc(COc2ccc3oc(C(C)NC(C)=O)nc3c2)cc1` (centres unmarked) [Example 42, N-(1-{5-[(4-ethoxybenzyl)oxy]-1,3-benzoxazol-2-yl}ethyl)acetamide] the same measures were 76% and 1%.
For `CCOc1ccc(OCc2ccc3sc(C(C)NC(C)=O)nc3c2)cc1` (centres unmarked) [Example 37, N-(1-{5-[(4-ethoxyphenoxy)methyl]-1,3-benzothiazol-2-30 yl}ethyl)acetamide] the same measures were 77% and -4%.
As for `CCOc1ccc(COc2ccc3oc(C(C)NC(C)=O)cc3c2)c(F)c1` (centres unmarked) [Example 48, N-(1-{5-[(2-fluoro-4-ethoxybenzyl)oxy]-1-benzofuran-2-yl}ethyl)acetamide], the values for the inhibition at 10 µM in test [1] and in test [2] were 78% and 10%, respectively.
In the same order, the values of `CC(=O)NC(C)c1cc2cc(OCc3ccc(OCC4CC4)cc3F)ccc2o1` (centres unmarked) [Example 110, N-[1-(5-{[4-(cyclopropylmethoxy)-2-fluorobenzyl]oxy}-1-benzofuran-2-yl)ethyl]acetamide] are 78% and 40%.
For `CCOc1ccc(COc2ccc3sc(C(C)NC(C)=O)cc3c2)cc1` (centres unmarked) [Example 39, N-(1-{5-[(4-ethoxybenzyl)oxy]-1-benzothiophen-2-yl}ethyl)acetamide] the same measures were 80% and 17%.
Take `CCOc1ccc(COc2ccc3cc(C(C)NC(C)=O)sc3c2)cc1` (centres unmarked) [Example 19, N-(1-{6-[(4-ethoxybenzyl)oxy]-1-benzothiophen-2-yl}ethyl)acetamide]: the inhibition at 10 µM in test [1] was determined as 78%; in test [2], 24%.
Regarding `CCOc1ccc(COc2ccc3oc(C(C)NC(C)=O)cc3c2)cc1` (centres unmarked) [Example 18, N-(1-{5-[(4-ethoxybenzyl)oxy]-1-benzofuran-2-yl}ethyl)acetamide], the inhibition at 10 µM in test [1] worked out at 85%; in test [2] it was 15%.
Consider `CC(=O)N[C@@H](C)[C@@H]1Cc2ccc(OCc3ccc(OC[C@@H]4CCCO4)cc3F)cc2O1` [Example 146, N-{(1S)-1-[(2S)-6-({2-fluoro-4-[(2S)-tetrahydrofuran-2-ylmethoxy]benzyl}oxy)-2,3-dihydro-1-benzofuran-2-yl]ethyl}acetamide], for which the inhibition at 10 µM turned out to be 84% in test [1] and 40% in test [2].
